According to EP0831877B1, “METABOLIC EFFECTS OF CERTAIN GLUTATHIONE ANALOGS” (TELIK, INC., priority 1995, dated 1996):
Like-named read-outs stand apart in the source and are kept apart here. Marks after values point to notes of the source that are not given here. Blank lines part the entries; values can stand above or below the compound they belong to.

Key:
Human GST P1-1 = Human GST P1-1 (Homo sapiens, UniProt P09211); experiment: inhibition of GST isoenzyme P1-1 (Ki); assay type: biochemical; settings: for Rank order: rank of Ki for Human GST P1-1
Human GST P1-1, sequence (P09211 2-210 limits assumed): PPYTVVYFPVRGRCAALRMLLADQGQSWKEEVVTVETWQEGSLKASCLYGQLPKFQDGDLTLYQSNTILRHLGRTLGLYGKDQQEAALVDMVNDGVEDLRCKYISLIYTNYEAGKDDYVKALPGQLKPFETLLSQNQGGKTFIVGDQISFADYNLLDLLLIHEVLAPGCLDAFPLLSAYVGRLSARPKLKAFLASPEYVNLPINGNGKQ

[1] = tested on: HT4-1, a subclone of HT-29; experiment: standard clonogenic assay, potentiation of drug toxicity, HT4-1; settings: HT4-1; TER199 at 25 µM, TER183 dose not given
[2] = tested on: SKOV-3 an ovarian carcinoma; experiment: standard clonogenic assay, potentiation of drug toxicity, SKOV-3; assay type: cell-based
Procedure: (§1) ; SKOV-3 an ovarian carcinoma, and VLB, a vinblastine-resistant variant of SKOV-3. Four chemotherapeutic drugs, chlorambucil, adriamycin, mitomycin C and doxorubicin were used as the toxic agents. In these assays, the cells were seeded at 300 cells/well in 2 ml of medium in 6-well plates in the presence of the compounds used in the invention as the diethyl esters. […]. After incubation for 1-2 hours to permit cells to attach, varying doses of the chemotherapeutic agents were added. At least three replicate wells were plated for each test condition and the plates were incubated for two weeks. Colonies were fixed in 95% ethanol and stained with crystal violet for colony counting. IC50 values were determined for the chemotherapeutic agent in the presence or absence of the compound used in the invention and dose modification factors were calculated by dividing the IC50 value of drug without the compound by the IC50 value of the drug with the compound.

[3] = tested on: VLB, a vinblastine-resistant variant of SKOV-3; experiment: standard clonogenic assay, potentiation of drug toxicity, VLB; assay type: cell-based
Procedure: as §1

[4] = tested on: HT-29 (human colon adenocarcinoma) cells; experiment: modified clonogenic assay, potentiation of chlorambucil cytotoxicity; assay type: cell-based; settings: for DMF of DEE: diethyl ester
Procedure: HT-29 (human colon adenocarcinoma) cells were obtained from Dr. Roberto Ceriani (Cancer Research Fund of Contra Costa County, Walnut Creek, CA) and were used in log phase of growth unless otherwise specified. Chlorambucil (CMB) was obtained from Sigma (St. Louis, MO) and was dissolved in 100% ethanol. All GST inhibitors were dissolved in ethanol, DMSO, or water just prior to use. The same amount of solvent added to culture medium served as the vehicle control.
In a modified clonogenic assay for cytotoxicity, cells were suspended at 2 x 10^5 cells/ml in serum-free medium in the presence of vehicle or inhibitor. […] Cells were incubated for 2 hours, then varying doses of CMB were added. At the end of a second 2-hour incubation, cells were diluted to 7.5-10 x 10^3/ml in serum-containing medium and plated in quadruplicate at 200 µl/well in Microtest III microtiter plates.
Plates were incubated for 6 days and assayed by a modified methylene blue method. Briefly, cells were fixed with 1.25% glutaraldehyde in PBS then stained with 0.05% methylene blue in distilled water. Plates were washed several times in distilled water to remove unretained dye and retained dye was resolubilized in 0.03 N HCl. Plates were read at 650 nm in a Molecular Devices Vmax plate reader (Molecular Devices, Redwood City, CA). […] A dose modification factor (DMF), a measure of potentiation of cytotoxicity, was calculated for each inhibitor by dividing the IC50 value of CMB without inhibitor treatment by the IC50 value for CMB with inhibitor treatment.

GST A1-1 = target: T1, GST A1-1 (Homo sapiens, UniProt P08263); experiment: inhibition of GST isoenzyme A1-1 (Ki); assay type: biochemical
T1 sequence (P08263 1-222): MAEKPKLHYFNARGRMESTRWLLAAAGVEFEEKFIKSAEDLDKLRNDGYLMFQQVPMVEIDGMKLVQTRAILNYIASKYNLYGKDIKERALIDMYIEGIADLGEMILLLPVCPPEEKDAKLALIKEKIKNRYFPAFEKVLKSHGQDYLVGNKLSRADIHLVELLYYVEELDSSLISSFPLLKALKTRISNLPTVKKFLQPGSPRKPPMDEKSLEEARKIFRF

bone marrow GM-CFU [5] = experiment: stimulation of bone marrow GM-CFU after administration to mice; assay type: in vivo, B6D2F1 mice; settings: bone marrow harvested 24 hours after administering
Procedure: In an illustrative assay three B6D2F1 mice were treated with various doses of benzyl PG intraperitoneally.
Mice in the control group were injected with water or saline. Bone marrow cells were harvested 24 hours after drug treatment and added to alpha minimum essential medium (alpha MEM) supplemented with methylcellulose (0.8% w/v), fetal bovine serum (20% v/v), deionized BSA (1% w/v), Pokeweed mitogen-stimulated spleen-cell conditioned medium (PWM-SCCM)^1 (10% v/v) and gentamycin (50 Tg/ml). One ml aliquots were plated (four replicate plates) and incubated for seven days at 37 °C. […] Spleens were removed aseptically from four male B6D2F1 mice enforced through a 200 Tm wire mesh screen to obtain a single cell suspension. Ten ml of the suspension (2-4 X 10^7 cell/ml was added to 90 ml alpha-MEM supplemented with 1% deionized BSA, 50 Tg/ml gentamicin, 0.3% freshly reconstituted pokeweed antigen, 10 µM 2-mercaptoethanol. The mixture was incubated for 5 days at […] in a 5% CO2 atmosphere and the result-ing conditioned medium was centrifuged at 800g for ten minutes and filtered through a 0.22 Tm filter. Aliquots were kept frozen at […] until use.
Bone marrow was harvested 24 hours after administering the compounds and GM-CFU levels measured as described above.

GST M1a-1a = target: T2, GST M1a-1a (Homo sapiens, UniProt P09488); experiment: inhibition of GST isoenzyme M1a-1a (Ki); assay type: biochemical
T2 sequence (P09488 1-218): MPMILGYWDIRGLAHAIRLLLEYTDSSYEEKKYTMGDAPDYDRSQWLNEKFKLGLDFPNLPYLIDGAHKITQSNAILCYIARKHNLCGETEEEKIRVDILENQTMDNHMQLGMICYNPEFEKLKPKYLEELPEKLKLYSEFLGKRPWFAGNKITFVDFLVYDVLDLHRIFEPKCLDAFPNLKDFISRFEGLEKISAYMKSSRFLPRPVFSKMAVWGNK

GST M2-2 = target: T3, GST M2-2 (Homo sapiens, UniProt P28161); experiment: inhibition of GST isoenzyme M2-2 (Ki); assay type: biochemical; settings: determined on unesterified form
T3 sequence (P28161 1-218): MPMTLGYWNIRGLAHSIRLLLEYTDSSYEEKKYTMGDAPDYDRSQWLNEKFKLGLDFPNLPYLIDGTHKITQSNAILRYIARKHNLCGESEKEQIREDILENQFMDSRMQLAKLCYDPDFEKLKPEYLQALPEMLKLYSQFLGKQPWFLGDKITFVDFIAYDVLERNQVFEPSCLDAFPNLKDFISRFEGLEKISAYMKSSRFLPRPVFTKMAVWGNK

HT-29 cells = experiment: Cytosensor Microphysiometer acidification rates; assay type: cell-based, human; settings: 4 hours pretreatment, TER199 20 µM, ethacrynic acid 50 µM
Procedure: The metabolic effects related to toxicity of the compounds of the invention on HT-29 cells, were tested using a Cytosensor Microphysiometer made by Molecular Devices, Inc., Menlo Park, CA and described in McConnell, H.M. et al. Science (1992) 257:1906-1912 and by Wada, H.G. et al. AATEX (1992) 1:154-164. Changes in pH of the culture medium are measured as a function of cellular metabolism. Acidification rates of the small volume of liquid flowing over the cells correlate with the number of live cells in the reaction chamber; a reduction of acidification rate reflects reduced numbers of surviving cells. […] The medium was then replaced with serum-free low buffer capacity medium and Microphysiometer analysis was initiated.

HT4-1 tumors = experiment: potentiation of melphalan toxicity in vivo, implanted HT4-1 tumors; set-up: species or system Male scid mice
Procedure: Male scid mice were subcutaneously implanted with HT4-1 tumors from donor mice. HT4-1 is a subclone of HT-29, a human colon cancer. When tumors reached approximately 100 mm^3, the mice were randomized into six treatment groups and treated for seven days as follows: • 1. 5 mg/kg melphalan; • 2. 10 mg/kg ethacrynic acid; • 3. […] 5 mg/kg melphalan + 10 mg/kg ethacrynic acid; • 5.
The mice were monitored for weight changes and tumor volumes were determined by measurement with calipers. The tumor growth was monitored until the average tumor size reached 1500 mm^3 for all groups except melphalan with ethacrynic acid.
The results were computed in terms of the tumor volume in the drug treated mice as a percentage of control tumor volume (i.e., in the group administered vehicle alone). In group 1, administered melphalan alone, the tumors were approximately 75% of the volume of controls. […] For group 4 administered a combination of melphalan and ethacrynic acid, the volumes were approximately 35% of control. […] (The volume measurements were taken at the time control tumors reached 1500 mm^3.)

bone marrow GM-CFU [6] = experiment: 5-fluorouracil-induced GM-CFU suppression in mice
Procedure: The control group was not treated with either drug. Bone marrows were harvested and GM-CFUs were determined 24 hours after the final injection.
Values are the mean ± SE of three mice per point.

[7] = in vitro half-life in human blood; assay type: in vitro ADME
[8] = in vitro half-life / metabolism in mouse blood; assay type: in vitro ADME
[9] = chlorambucil, mean ±S.D. of 2-3 experiments
[10] = determined on unesterified form
[11] = chlorambucil, HT-29, dose tested 12.5 µM, mean ±S.D. of 2-3 experiments

Compound: γE-C(naphthyl)-G [TER211]
Rank order (Human GST P1-1): 3

Compound: CCCCCCCCSC[C@H](NC(=O)CC[C@H](N)C(=O)OCC)C(=O)NCC(=O)OCC [TER183, γE-C(octyl)-G diethyl ester]
DMF for Adriamycin [1]: 1.13
DMF for Chlorambucil [1]: 1.74
DMF for Mitomycin C [1]: 1.56
DMF for Adriamycin ([2]; analog @5 uM): 1.24 (@5 uM)^c
DMF for Chlorambucil ([2]; test dose not given): 1.03
DMF for Adriamycin ([3]; TER199 at 25 µM, TER183 dose not given): 1.06
DMF for Mitomycin C ([3]; test dose not given): 1.63
DMF (dose modification factor), Diethyl ester ([4]; chlorambucil, HT-29, dose tested 5 µM, mean ±S.D. of 2-3 experiments): 0.86±0.02
DMF of DEE [4, 9]: 0.864

Compound: γE-C(Bz) (S+)-fA [TER317]
Ki (GST A1-1; [10]): > 1000 µM
Ki (Human GST P1-1; [10]): > 1000 µM
effect on GM-CFU, analogs of TER199 (Figure 8) (bone marrow GM-CFU [5]): inactive
Ki (GST M1a-1a; [10]): > 1000 µM
Ki (GST M2-2): > 1000 µM

Compound: CCCCCCCCSC[C@H](NC(=O)CC[C@H](N)C(=O)OCC)C(=O)NCC(=O)OCC [TER143, γE-C(octyl)-G]
Ki (GST A1-1): 0.27 µM
Ki (Human GST P1-1): 1.9 µM
Ki (GST M1a-1a): 1.2 µM

Compound: C=C(CC)C(=O)c1ccc(OCC(=O)O)c(Cl)c1Cl [ethacrynic acid, reference compound]
effect on acidification rates, compound alone (Figure 2) (HT-29 cells; no chlorambucil): Neither γE-C(Bz)-ϕG diethylester (TER199) nor ethacrynic acid alone had any appreciable effect
effect of pretreatment on acidification rates with chlorambucil (Figure 2) (HT-29 cells; then 100 µM chlorambucil): potentiated the effect of chlorambucil
time until average tumor size reached 1500 mm^3 (HT4-1 tumors; 5 mg/kg melphalan + 10 mg/kg ethacrynic acid, volume not reached): > 72 days
tumor volume as a percentage of control tumor volume (HT4-1 tumors; group 4: 5 mg/kg melphalan + 10 mg/kg ethacrynic acid, seven days, when control tumors reached 1500 mm^3): approximately 35%

Compound: O=c1[nH]cc(F)c(=O)[nH]1 [5-FU, 5-fluorouracil, reference compound]
GM-CFU (bone marrow GM-CFU [6]; 75 mg/kg 5-FU IP alone): 15 % of control
GM-CFU (bone marrow GM-CFU [6]; 5-FU 75 mg/kg i.p. alone, harvest 48 hours): 47 % of control
GM-CFU (bone marrow GM-CFU [6]; 5-FU 150 mg/kg i.p. alone, harvest 48 hours): 8 % of control
GM-CFU by day 4 after 5-FU administration (Figure 9b) (bone marrow GM-CFU [6]; 5-FU only): approximately equal to control

Compound: CCNC(=O)C(N)CCC(=O)NC(CSCc1ccccc1)C(=O)N[C@@H](C(=O)NCC)c1ccccc1 (stereo partly drawn) [TER278, γE ethyl amide-C(Bz)-R-(-)-ϕG ethyl amide]
half-life, comparison of the three compounds [7]: approximately the same
half-life compared with TER199 [8]: longer half-lives than TER199
DMF for chlorambucil toxicity ([4]; HT-29, 200 µM, single experiment): 1.0
ability to potentiate chlorambucil compared with TER199 ([4]; test system not stated): less able to potentiate chlorambucil
toxicity compared with TER199 ([4]; test system not stated): less toxic

Compound: CCCCCCSC[C@H](NC(=O)CC[C@H](N)C(=O)OCC)C(=O)NC(C(=O)OCC)c1ccccc1 (some centres unmarked) [γE-C(Hx)-ϕG diethyl ester, γE-C(Hx)-ϕG]
DMF (dose modification factor), Diethyl ester [4, 11]: 1.27±0.02
DMF of DEE [4, 9]: 1.272

Now from value to compound, other results behind:

Ki (GST A1-1; [10]): 4.2 µM
Ki (Human GST P1-1; [10]): 1.2 µM
Ki (GST M1a-1a; [10]): 0.01 µM
Ki (GST M2-2): 1.5 µM
Compound: γE-C(naphthyl)-G [TER206]
effect on GM-CFU, analogs of TER199 (Figure 8) (bone marrow GM-CFU [5]): inactive
DMF (dose modification factor), Diethyl ester [4, 11]: 1.21±0.01
DMF of DEE [4, 9]: 1.213

specificity for GST P1-1 (Human GST P1-1; among TER117, TER102, TER211, TER143): reasonably specific
Rank order (Human GST P1-1): 2
Compound: CCCCCCSC[C@H](NC(=O)CC[C@H](N)C(=O)O)C(=O)N[C@@H](C(=O)O)c1ccccc1 [TER102, γE-C(hexyl)-ϕG]
DMF (dose modification factor), Parent Compound ([4]; chlorambucil, HT-29, dose tested 100 µM, mean ±S.D. of 2-3 experiments): 1.1±0.02

Rank order (Human GST P1-1): 4
Compound: CCCCCCCCSC[C@H](NC(=O)CC[C@H](N)C(=O)O)C(=O)NCC(=O)O [TER143, γE-C(octyl)-G]
